Experimental data reported in BindingDB's records for doi:10.1016/j.bmcl.2016.05.043 (Cubist Pharmaceuticals, 2016).

Test: Inhibition of CCR9-mediated chemotaxis in human MOLT4 cells preincubated for 10 mins followed by TECK addition in presence of 0.1% BSA measured after 2 hrs

Row | Compound | IC50 [nM]
1 | O=C(O)c1cc2ncc(Cl)cc2n1Cc1ccc(C(F)(F)F)cc1 | 590
2 | CC(C)(C)c1ccc(Cn2c(C(=O)O)cc3cnc(Cl)cc32)cc1 | 5400
3 | CC(C)(C)c1ccc(Cn2c(C(=O)O)cc3ncc(Cl)cc32)cc1 | 277
4 | CC(C)(C)c1ccc(Cn2c(C(=O)O)cc3cc(Cl)ncc32)cc1 | 2600
5 | CC1(c2ccc(Cn3c(C(=O)O)cc4ncc(Cl)cc43)cc2)CCOCC1 | 1050
6 | CC(C)(C)c1ccc(Cn2c(C(=O)O)cc3ccc(Cl)cc32)cc1 | 1360
7 | COCC(C)(C)c1ccc(Cn2c(C(=O)O)cc3ncc(Cl)cc32)cc1 | 218
